Results on 8 compounds are retold here after ChEMBL document CHEMBL1201862, “PubChem BioAssay data set” (2004).

Among the test systems are SF-295; U-251; SN12C; DU-145; HL-60; A549; RPMI-8226; NCI-H460; IGROV-1; T47D; MCF7; SF-268; NCI-H226; SW-620; NCI/ADR-RES; PC-3; LOX IMVI; UO-31; SK-MEL-5; HCC 2998.
Assay in all cases: NCI-60 cell line screen, 48 h

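Each compound was tested at five concentrations against cells in 96-well plates for 48 hours. GI50 = concentration required for 50% inhibition of growth.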 Activity calls are given as the source filed them. No stated cut-off is given here; in the data, active = GI50 up to about 1.1 µM and inactive = higher.

In the case of `CCCCCCCCCCCC[C@@H](O)[C@H]1CC[C@H]([C@H]2CC[C@H]([C@H](O)CC[C@H](O)CCCCCCCC3=C[C@H](C)OC3=O)O2)O1`, the GI50 with SF-295 is 1.26 µM (inactive); with U-251, 2.13 µM (inactive); with SN12C it was 3.22 µM (inactive); with DU-145, 3.38 µM (inactive); in the assay on HL-60 it was 1.26 µM (inactive); with A549, 1.35 µM (inactive). Also, the GI50 is 1.2 µM (inactive) in the assay with RPMI-8226; 1.08 µM (active) in the assay with NCI-H460; 1.65 µM (inactive) in the assay with IGROV-1; 3.4 µM (inactive) in the assay with T47D; 1.15 µM (inactive) with MCF7; 1.55 µM (inactive) in the assay with SF-268. Also, the GI50 was 1.67 µM (inactive) in the assay on NCI-H226; 1.94 µM (inactive) in the assay on SW-620; 1.29 µM (inactive) in the assay on NCI/ADR-RES; 1.55 µM (inactive) in the assay with PC-3; 1.17 µM (inactive) in the assay on LOX IMVI; 0.562 µM (active) in the assay on UO-31. Moreover, the GI50 with SK-MEL-5 is 1.38 µM (inactive).

Regarding `CCOC(=O)c1nc2ccc(C(F)(F)F)cc2nc1Oc1cc(OC)cc(OC)c1`, the GI50 with SF-295 is 78.3 µM (inactive); in the assay with U-251, 87.9 µM (inactive); in the assay with SN12C, > 100 µM (inactive); in the assay on DU-145, 87.3 µM (inactive); in the assay with HL-60 it was > 100 µM (inactive); in the assay on A549, > 100 µM (inactive). The GI50 in the assay with RPMI-8226 was > 100 µM (inactive); with NCI-H460 it was 60.5 µM (inactive); in the assay on IGROV-1 it was 41.7 µM (inactive); with T47D, > 100 µM (inactive); in the assay with MCF7, > 100 µM (inactive); in the assay with SF-268, 93.3 µM (inactive). The GI50 with NCI-H226 was 67.8 µM (inactive); in the assay on SW-620, > 100 µM (inactive); in the assay with NCI/ADR-RES, > 100 µM (inactive); in the assay with PC-3, > 100 µM (inactive); in the assay with LOX IMVI, > 100 µM (inactive); with UO-31, > 100 µM (inactive). Moreover, the GI50 in the assay on SK-MEL-5 was 29 µM (inactive).

Take `N#CC12C(=O)NC(=O)C1(C#N)C1C=CC2CC1` (stereo not given): the GI50 in the assay on SF-295, with U-251, in the assay with SN12C, in the assay with DU-145, in the assay on HL-60 and in the assay with A549 was > 100 µM (inactive) each time. Moreover, the GI50 in the assay with RPMI-8226, with T47D, in the assay with MCF7, with SF-268, in the assay with NCI-H226 and with SW-620 was > 100 µM (inactive) in each case. For the same compound, the GI50 in the assay with NCI/ADR-RES, with PC-3, with LOX IMVI, in the assay on UO-31 and in the assay on SK-MEL-5 was > 100 µM (inactive) each time.

Regarding `CC(C(N)C(=O)NC(C(=O)O)C1OC(n2ccc(=O)[nH]c2=O)C(O)C1O)C(O)c1ccc(O)cn1` (stereo not given), the GI50 with SF-295, in the assay on U-251, with SN12C, in the assay with HCC 2998, in the assay on DU-145 and in the assay on HL-60 was > 100 µM (inactive) in each case. Further, the GI50 with A549, in the assay with RPMI-8226, in the assay with NCI-H460, with IGROV-1, in the assay with T47D and in the assay on MCF7 was > 100 µM (inactive) throughout. In addition, the GI50 with SF-268, in the assay on SW-620, with NCI/ADR-RES, in the assay on PC-3, with LOX IMVI and with UO-31 was > 100 µM (inactive) in each case. Also, the GI50 with SK-MEL-5 is > 100 µM (inactive).

With `C[N+](C)(C)C(C1=CCCC1=O)c1ccccc1` (stereo not given), the GI50 in the assay with SF-295 is > 100 µM (inactive); in the assay with U-251 it was 20.6 µM (inactive); in the assay with SN12C it was 20.3 µM (inactive); with DU-145 it was 57.5 µM (inactive); with HL-60, 25.8 µM (inactive); in the assay on A549, > 100 µM (inactive). Further, the GI50 in the assay on RPMI-8226 is 15.8 µM (inactive); in the assay with NCI-H460, 28.4 µM (inactive); with IGROV-1 it was 30.3 µM (inactive); in the assay on T47D it was 43.8 µM (inactive); with MCF7, 21.8 µM (inactive); in the assay on SF-268, 18.6 µM (inactive). In addition, the GI50 in the assay on NCI-H226 is 36.6 µM (inactive); in the assay with SW-620 it was 21.5 µM (inactive); in the assay on NCI/ADR-RES it was 33.8 µM (inactive); with PC-3, 35.5 µM (inactive); with LOX IMVI it was 18.7 µM (inactive); with UO-31 it was > 100 µM (inactive). Also, the GI50 in the assay with SK-MEL-5 is > 100 µM (inactive).

On to `CC(C)(C)c1ccc2c(c1)C#Cc1cc(C(C)(C)C)ccc1OCCCO2`, for which the GI50 with SF-295, in the assay with U-251, with SN12C, in the assay on DU-145, in the assay on HL-60 and in the assay on A549 was > 100 µM (inactive) throughout. The GI50 with RPMI-8226, in the assay on NCI-H460, with IGROV-1, in the assay on T47D, in the assay with MCF7 and with SF-268 was > 100 µM (inactive) in each case. The GI50 with NCI-H226, in the assay on SW-620, in the assay on NCI/ADR-RES, with PC-3, in the assay with LOX IMVI and with UO-31 was > 100 µM (inactive) in each case. Also, the GI50 with SK-MEL-5 was > 100 µM (inactive).

Take `O=C1C(O)=C(CCCCCCCCC2CCCCC2)C(=O)c2ccccc21` [MENOCTONE]: the GI50 in the assay on SF-295 is 6.98 µM (inactive); in the assay with U-251 it was 5.71 µM (inactive); in the assay with SN12C, 7.89 µM (inactive); with HCC 2998, 8.69 µM (inactive); in the assay on DU-145, 7.45 µM (inactive); in the assay with HL-60 it was 1 µM (active). Besides, the GI50 with A549 is 5.58 µM (inactive); in the assay with RPMI-8226 it was 6.15 µM (inactive); with NCI-H460, 4.3 µM (inactive); with IGROV-1 it was 5.3 µM (inactive); in the assay with T47D, 5.5 µM (inactive); in the assay on MCF7, 6.41 µM (inactive). The GI50 is 7.03 µM (inactive) in the assay on SF-268; 4.23 µM (inactive) in the assay on SW-620; 6.34 µM (inactive) in the assay with NCI/ADR-RES; 5.09 µM (inactive) in the assay with PC-3; 3.6 µM (inactive) in the assay on LOX IMVI; 8.34 µM (inactive) with UO-31. Moreover, the GI50 in the assay on SK-MEL-5 was 10.4 µM (inactive).

Turning to `O=C(O)c1ccc2c(c1C(=O)O)C(=O)OC2(c1ccc(O)cc1)c1ccc(O)cc1`, the GI50 in the assay with SF-295, with U-251, in the assay with SN12C, in the assay on DU-145, with HL-60 and with A549 was > 100 µM (inactive) each time. Further, the GI50 with RPMI-8226, in the assay on NCI-H460, with IGROV-1, with T47D, in the assay with MCF7 and in the assay on SF-268 was > 100 µM (inactive) throughout. The GI50 in the assay on NCI-H226, in the assay on SW-620, in the assay on NCI/ADR-RES, in the assay on PC-3, in the assay with LOX IMVI and in the assay on UO-31 was > 100 µM (inactive) each time. Further, the GI50 in the assay on SK-MEL-5 was > 100 µM (inactive).
